The values below come from paper PMC11995724, “Antibiotic target discovery by integrated phenotypic and activity-based profiling of electrophilic fragments” (Cell chemical biology, 2025).

A short description of the data set: in vitro. The settings on record: human, hek293t cells.
Take `CCOc1ccc(C=C(C#N)C(=O)Nc2cccc3ncccc23)cc1` [8-A07, 2-cyano-3-(4-ethoxyphenyl)-N-(quinolin-5-yl)prop-2-enamide]: the viability at 48 h, 25 µM was 60.7%.

In the case of `N#CC(=Cc1cnn(-c2ccc(Cl)cc2)c1)C(=O)NC1CCCCC1` [8-A08, 3-[1-(4-chlorophenyl)-1H-pyrazol-4-yl]-2-cyano-N-cyclohexylprop-2-enamide], the viability at 48 h, 25 µM came out at 60.6%.

With `N#CC(=Cc1ccc2c(c1)OCO2)C(=O)NCc1ccccc1` [8-A09, 3-(1,3-dioxaindan-5-yl)-N-benzyl-2-cyanoprop-2-enamide], the viability at 48 h, 25 µM is 85.6%.

With `Cc1cc(C)c(NC(=O)C(C#N)=Cc2cc(F)ccc2F)c(C)c1` [8-A10, 2-cyano-3-(2,5-difluorophenyl)-N-(2,4,6-trimethylphenyl)prop-2-enamide], the viability at 48 h, 25 µM stood at 2.85%.

Regarding `Cc1cccc(C)c1NC(=O)C(C#N)=Cc1ccc(OC(F)F)cc1` [8-A11, 2-cyano-3-[4-(difluoromethoxy)phenyl]-N-(2,6-dimethylphenyl)prop-2-enamide], the viability at 48 h, 25 µM was 56.3%.

As to `N#CC(=Cc1cc(F)ccc1F)C(=O)Nc1cc(Cl)ccc1Cl` [8-A12, 2-cyano-N-(2,5-dichlorophenyl)-3-(2,5-difluorophenyl)prop-2-enamide], the viability at 48 h, 25 µM came out at 61%.

In the case of `Cc1c(C=C(C#N)C(=O)Nc2ccccc2F)cc(C#N)n1C` [8-A13, 2-cyano-3-(5-cyano-1,2-dimethyl-1H-pyrrol-3-yl)-N-(2-fluorophenyl)prop-2-enamide], the viability at 48 h, 25 µM was 83.9%.

As to `COc1ccc(-c2n[nH]cc2C=C(C#N)C(=O)Nc2ccccc2)cc1` [8-A14, 2-cyano-3-[3-(4-methoxyphenyl)-1H-pyrazol-4-yl]-N-phenylprop-2-enamide], the viability at 48 h, 25 µM was 76.6%.

As to `N#CC(=Cc1ccccc1)C(=O)Nc1ccccc1-c1ccccc1` [8-A15, N-{[1,1'-biphenyl]-2-yl}-2-cyano-3-phenylprop-2-enamide], the viability at 48 h, 25 µM was 90.1%.

For the compound `Cc1ccccc1NC(=O)C(C#N)=Cc1cc(C)n(C2CC2)c1C` [8-A16, 2-cyano-3-(1-cyclopropyl-2,5-dimethyl-1H-pyrrol-3-yl)-N-(2-methylphenyl)prop-2-enamide], the viability at 48 h, 25 µM came out at 47.1%.

As to `COc1ccc(C=C(C#N)C(=O)Nc2c(C)cccc2C)cc1OC` [8-A17, 2-cyano-3-(3,4-dimethoxyphenyl)-N-(2,6-dimethylphenyl)prop-2-enamide], the viability at 48 h, 25 µM was 82.9%.

On to `COc1cc(C=C(C#N)C(=O)Nc2c(C)cc(C)cc2C)cc(OC)c1` [8-A18, 2-cyano-3-(3,5-dimethoxyphenyl)-N-(2,4,6-trimethylphenyl)prop-2-enamide], for which the viability at 48 h, 25 µM was found to be 26.3%.

`COc1cccc(NC(=O)C(C#N)=Cc2ccc([N+](=O)[O-])o2)c1` [8-A19, 2-cyano-N-(3-methoxyphenyl)-3-(5-nitrofuran-2-yl)prop-2-enamide]: the viability at 48 h, 25 µM turned out to be 72.4%.

Turning to `CCc1ccc(NC(=O)C(C#N)=Cc2cccn2C)cc1` [8-A20, 2-cyano-N-(4-ethylphenyl)-3-(1-methyl-1H-pyrrol-2-yl)prop-2-enamide], the viability at 48 h, 25 µM was found to be 58.7%.

Consider `COc1cc(Cl)c(C)cc1NC(=O)C(C#N)=CC=Cc1ccccc1` [8-A21, N-(4-chloro-2-methoxy-5-methylphenyl)-2-cyano-5-phenylpenta-2,4-dienamide], for which the viability at 48 h, 25 µM was 82%.

In the case of `CC(C)NC(=O)C(C#N)=Cc1cccc(O)c1` [8-A22, 2-cyano-3-(3-hydroxyphenyl)-N-(propan-2-yl)prop-2-enamide], the viability at 48 h, 25 µM was determined as 67.3%.

`N#CC(=Cc1ccc2c(c1)OCCO2)C(=O)Nc1nccs1` [8-B03, 2-cyano-3-(2,3-dihydro-1,4-benzodioxin-6-yl)-N-(1,3-thiazol-2-yl)prop-2-enamide]: the viability at 48 h, 25 µM was 115%.

Regarding `COCC(C)n1c(C)cc(C=C(C#N)C(=O)NS(C)(=O)=O)c1C` (stereo not drawn) [8-B04, 2-cyano-N-methanesulfonyl-3-[1-(1-methoxypropan-2-yl)-2,5-dimethyl-1H-pyrrol-3-yl]prop-2-enamide], the viability at 48 h, 25 µM was 94.8%.

As to `N#CC(=Cc1ccc(O)c(O)c1)C(=O)Nc1ccccc1F` [8-B05, 2-cyano-3-(3,4-dihydroxyphenyl)-N-(2-fluorophenyl)prop-2-enamide], the viability at 48 h, 25 µM came to 92.9%.

As to `N#CC(=Cc1cccc(F)c1F)C(=O)NCc1ccccc1` [8-B06, N-benzyl-2-cyano-3-(2,3-difluorophenyl)prop-2-enamide], the viability at 48 h, 25 µM was determined as 27.1%.

Consider `N#CC(=Cc1ccc(Cl)c(Cl)c1)C(=O)NCc1ccccc1` [8-B07, N-benzyl-2-cyano-3-(3,4-dichlorophenyl)prop-2-enamide], for which the viability at 48 h, 25 µM is 105%.

Take `N#CC(=Cc1ccc([N+](=O)[O-])c(Cl)c1)C(=O)NC1CCCCC1` [8-B08, 3-(3-chloro-4-nitrophenyl)-2-cyano-N-cyclohexylprop-2-enamide]: the viability at 48 h, 25 µM turned out to be 0.92%.

Turning to `CCOc1ccccc1C=C(C#N)C(=O)Nc1ccc(Cl)cc1` [8-B09, N-(4-chlorophenyl)-2-cyano-3-(2-ethoxyphenyl)prop-2-enamide], the viability at 48 h, 25 µM was 82.9%.

As for `Cc1cc(=O)[nH]c(-c2cccc(NC(=O)C(C#N)=Cc3ccco3)c2)n1` [8-B10, 2-cyano-3-(furan-2-yl)-N-[3-(4-methyl-6-oxo-1,6-dihydropyrimidin-2-yl)phenyl]prop-2-enamide], the viability at 48 h, 25 µM stood at 57.8%.

For `N#CC(=Cc1ccccc1Cl)C(=O)Nc1ccc(Cl)cc1` [8-B11, 3-(2-chlorophenyl)-N-(4-chlorophenyl)-2-cyanoprop-2-enamide], the viability at 48 h, 25 µM was determined as 113%.

For `Cc1ccccc1N1C(=O)CSC1=C(C#N)C(=O)N1CCCCC1` [8-B12, 2-[3-(2-methylphenyl)-4-oxo-1,3-thiazolidin-2-ylidene]-3-oxo-3-(piperidin-1-yl)propanenitrile], the viability at 48 h, 25 µM amounted to 113%.

Take `Cc1ccsc1C=C(C#N)C(=O)N1CCN(c2ccccc2)CC1` [8-B13, 3-(3-methylthiophen-2-yl)-2-(4-phenylpiperazine-1-carbonyl)prop-2-enenitrile]: the viability at 48 h, 25 µM stood at 92.4%.

With `N#CC(=Cc1c(Cl)cccc1Cl)C(=O)NCCc1ccccc1` [8-B14, 2-cyano-3-(2,6-dichlorophenyl)-N-(2-phenylethyl)prop-2-enamide], the viability at 48 h, 25 µM worked out at 2%.

Take `COc1ccccc1NC(=O)C(C#N)=Cc1ccc(C)s1` [8-B15, 2-cyano-N-(2-methoxyphenyl)-3-(5-methylthiophen-2-yl)prop-2-enamide]: the viability at 48 h, 25 µM worked out at 103%.

In the case of `N#CC(=Cc1ccc(O)cc1)C(=O)NCc1ccc(Cl)cc1` [8-B16, N-[(4-chlorophenyl)methyl]-2-cyano-3-(4-hydroxyphenyl)prop-2-enamide], the viability at 48 h, 25 µM came to 102%.

In the case of `Cc1cc(C)c(NC(=O)C(C#N)=Cc2cccnc2)c(C)c1` [8-B17, 2-cyano-3-(pyridin-3-yl)-N-(2,4,6-trimethylphenyl)prop-2-enamide], the viability at 48 h, 25 µM was found to be 122%.

Consider `Cc1c(C=C(C#N)C(=O)Nc2nccs2)cc(C#N)n1C` [8-B18, 2-cyano-3-(5-cyano-1,2-dimethyl-1H-pyrrol-3-yl)-N-(1,3-thiazol-2-yl)prop-2-enamide], for which the viability at 48 h, 25 µM was 94.1%.

With `N#CC(=Cc1ccncc1)C(=O)Nc1cccc(Cl)c1` [8-B19, N-(3-chlorophenyl)-2-cyano-3-(pyridin-4-yl)prop-2-enamide], the viability at 48 h, 25 µM amounted to 85.5%.
